# Patent US20090118332A1, “Therapeutic Agents - 551” (AstraZeneca AB, priority 2006, published 2009)
# Target: T1, human Fatty Acid Synthase (Homo sapiens, UniProt P49327)
# T1 construct: made in house
# Test: Human FAS enzyme assay (decrease in NADPH fluorescence)
# Type: biochemical
# Conditions: % inhibition at a concentration of 100 μmolar
# In short: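 In-house human FAS was preincubated with compound and NADPH for 15 min at room temperature in 0.1 M Tris pH 7.5 with EDTA, glutathione and BSA. Malonyl CoA and acetyl CoA (500 μM and 150 μM in the added mix) were then added for 60 min. IC50 came from time-zero-subtracted NADPH fluorescence (340/460 nm).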
# T1 sequence (P49327 whole entry): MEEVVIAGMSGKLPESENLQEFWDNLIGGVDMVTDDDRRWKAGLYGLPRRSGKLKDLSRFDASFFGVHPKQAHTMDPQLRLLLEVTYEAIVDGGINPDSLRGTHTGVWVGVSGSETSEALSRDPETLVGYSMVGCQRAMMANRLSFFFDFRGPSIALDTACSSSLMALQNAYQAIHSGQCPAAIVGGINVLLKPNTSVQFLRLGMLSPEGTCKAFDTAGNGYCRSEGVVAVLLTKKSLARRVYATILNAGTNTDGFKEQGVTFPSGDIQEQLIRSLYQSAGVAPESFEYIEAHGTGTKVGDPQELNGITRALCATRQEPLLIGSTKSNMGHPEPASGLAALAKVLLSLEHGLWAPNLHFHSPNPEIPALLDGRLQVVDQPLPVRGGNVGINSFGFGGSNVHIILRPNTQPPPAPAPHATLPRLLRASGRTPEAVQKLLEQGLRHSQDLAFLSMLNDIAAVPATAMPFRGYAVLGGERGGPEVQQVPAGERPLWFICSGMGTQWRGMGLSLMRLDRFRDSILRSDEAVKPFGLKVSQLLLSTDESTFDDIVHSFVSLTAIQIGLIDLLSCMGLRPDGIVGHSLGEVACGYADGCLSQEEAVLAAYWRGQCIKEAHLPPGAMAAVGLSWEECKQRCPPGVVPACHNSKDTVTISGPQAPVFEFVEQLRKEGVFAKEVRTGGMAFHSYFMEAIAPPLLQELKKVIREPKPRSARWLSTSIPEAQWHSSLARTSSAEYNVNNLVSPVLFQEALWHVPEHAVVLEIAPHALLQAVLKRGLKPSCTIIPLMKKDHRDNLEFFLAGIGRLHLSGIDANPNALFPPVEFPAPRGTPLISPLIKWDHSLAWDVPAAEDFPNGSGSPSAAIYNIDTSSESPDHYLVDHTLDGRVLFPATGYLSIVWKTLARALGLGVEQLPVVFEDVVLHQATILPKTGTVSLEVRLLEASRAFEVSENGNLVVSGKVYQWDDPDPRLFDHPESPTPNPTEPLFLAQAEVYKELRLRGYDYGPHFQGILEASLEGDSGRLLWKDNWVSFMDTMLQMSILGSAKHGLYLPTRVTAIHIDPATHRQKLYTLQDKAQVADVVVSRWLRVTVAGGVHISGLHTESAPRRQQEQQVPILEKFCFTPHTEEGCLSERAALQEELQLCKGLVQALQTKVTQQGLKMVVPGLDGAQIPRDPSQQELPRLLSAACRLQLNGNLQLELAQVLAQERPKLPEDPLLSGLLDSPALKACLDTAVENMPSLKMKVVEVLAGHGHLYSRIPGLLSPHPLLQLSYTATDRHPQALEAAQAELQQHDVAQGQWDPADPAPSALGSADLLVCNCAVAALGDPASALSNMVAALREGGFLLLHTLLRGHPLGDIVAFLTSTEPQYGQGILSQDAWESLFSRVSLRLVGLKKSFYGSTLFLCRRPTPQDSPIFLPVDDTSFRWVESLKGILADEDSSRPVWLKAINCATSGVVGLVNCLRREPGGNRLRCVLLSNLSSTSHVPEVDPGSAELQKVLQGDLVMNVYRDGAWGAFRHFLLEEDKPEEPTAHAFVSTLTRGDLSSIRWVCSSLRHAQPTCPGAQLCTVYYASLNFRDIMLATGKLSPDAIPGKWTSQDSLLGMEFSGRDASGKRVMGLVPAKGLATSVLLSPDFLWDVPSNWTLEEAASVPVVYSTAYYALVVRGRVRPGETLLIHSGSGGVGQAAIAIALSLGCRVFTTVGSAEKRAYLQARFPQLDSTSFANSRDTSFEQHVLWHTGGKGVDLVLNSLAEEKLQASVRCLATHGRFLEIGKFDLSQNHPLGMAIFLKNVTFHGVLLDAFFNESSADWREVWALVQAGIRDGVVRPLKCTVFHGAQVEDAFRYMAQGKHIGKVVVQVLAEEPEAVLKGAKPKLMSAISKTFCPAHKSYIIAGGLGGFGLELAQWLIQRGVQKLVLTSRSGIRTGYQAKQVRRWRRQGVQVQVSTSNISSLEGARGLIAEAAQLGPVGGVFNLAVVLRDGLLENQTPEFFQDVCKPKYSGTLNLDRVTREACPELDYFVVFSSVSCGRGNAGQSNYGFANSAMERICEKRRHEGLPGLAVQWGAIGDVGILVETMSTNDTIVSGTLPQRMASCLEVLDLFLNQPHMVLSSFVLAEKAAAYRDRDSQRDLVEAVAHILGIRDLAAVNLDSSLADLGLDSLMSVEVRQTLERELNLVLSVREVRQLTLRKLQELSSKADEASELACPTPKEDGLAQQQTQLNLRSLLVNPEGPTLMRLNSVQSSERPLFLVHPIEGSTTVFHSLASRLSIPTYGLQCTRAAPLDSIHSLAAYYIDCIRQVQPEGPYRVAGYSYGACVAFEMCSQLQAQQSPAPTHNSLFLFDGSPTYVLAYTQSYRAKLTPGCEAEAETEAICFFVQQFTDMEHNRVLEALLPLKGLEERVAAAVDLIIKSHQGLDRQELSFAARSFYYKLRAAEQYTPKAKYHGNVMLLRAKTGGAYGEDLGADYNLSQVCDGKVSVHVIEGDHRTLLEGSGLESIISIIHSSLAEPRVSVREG
row,Structure (SMILES),inhibition at 100 µM [%]
1,"Cc1ccc(C(=O)N2CCC(c3ccc(C#N)cc3)CC2)cc1NC(=O)NC[C@@H](NC(=O)OC(C)(C)C)C(=O)O [Example 370, (2R)-3-[[5-[4-(4-cyanophenyl)piperidine-1-carbonyl]-2-methylphenyl]carbamoylamino]-2-[(2-methylpropan-2-yl)oxycarbonylamino]propanoic acid]",106
2,"Cc1ccc(C(=O)N2CCC(c3ccc(C#N)cc3)CC2)cc1NC(=O)NC(C(=O)O)C(C)C (centres unmarked) [Example 371, 2-[[5-[4-(4-cyanophenyl)piperidine-1-carbonyl]-2-methylphenyl]carbamoylamino]-3-methylbutanoic acid]",79
3,"Cc1ccc(C(=O)N2CCC(c3ccc(S(C)(=O)=O)cc3)CC2)cc1NC(=O)NC(C)C [Example 374, 1-[2-methyl-5-[4-(4-methylsulfonylphenyl)piperidine-1-carbonyl]phenyl]-3-propan-2-ylurea]",71.8
4,"Cc1ccc(NC(=O)NC(C)(C)C)cc1C(=O)N1CCC(c2ccc(C#N)cc2)CC1 [Example 376, 3-tert-butyl-1-[3-[4-(4-cyanophenyl)piperidine-1-carbonyl]-4-methylphenyl]urea]",68.4
5,"CC(C)NC(=O)Nc1ccc(F)c(C(=O)N2CCC(c3ccc(C#N)cc3)CC2)c1 [Example 377, 3-[3-[4-(4-cyanophenyl)piperidine-1-carbonyl]-4-fluorophenyl]-1-propan-2-ylurea]",71.1
6,"Cc1ccc(NC(=O)NCc2ccc(C#N)cc2)cc1C(=O)N1CCC(c2ccc(C#N)cc2)CC1 [Example 378, 3-[(4-cyanophenyl)methyl]-1-[3-[4-(4-cyanophenyl)piperidine-1-carbonyl]-4-methylphenyl]urea]",73.2
7,"Cc1ccc(NC(=O)NCc2ccncc2)cc1C(=O)N1CCC(c2ccc(C#N)cc2)CC1 [Example 379, 1-[3-[4-(4-cyanophenyl)piperidine-1-carbonyl]-4-methylphenyl]-3-(pyridin-4-ylmethyl)urea]",73.3
8,"Cc1ccc(NC(=O)N(C)C)cc1C(=O)N1CCC(c2ccc(C#N)cc2)CC1 [Example 380, 3-[3-[4-(4-cyanophenyl)piperidine-1-carbonyl]-4-methylphenyl]-1,1-dimethylurea]",74.8
9,"C#CC(C)(C)NC(=O)Nc1cc(C(=O)N2CCC(c3ccc(C#N)cc3)CC2)ccc1C [Example 384, 1-[5-[4-(4-cyanophenyl)piperidine-1-carbonyl]-2-methylphenyl]-3-(2-methylbut-3-yn-2-yl)urea]",97.6
10,"CCOC(=O)C(C)NC(=O)Nc1cc(C(=O)N2CCC(c3ccc(C#N)cc3)CC2)ccc1C (centres unmarked) [Example 385, Ethyl 2-[[5-[4-(4-cyanophenyl)piperidine-1-carbonyl]-2-methylphenyl]carbamoylamino]-propanoate]",60.8
11,"CC(C)NC(=O)Nc1cc(C(=O)N2CCC(c3ccc(C#N)cc3)CC2)ccc1[S+](C)[O-] (centres unmarked) [Example 386, 3-[5-[4-(4-cyanophenyl)piperidine-1-carbonyl]-2-methylsulfinylphenyl]-1-propan-2-ylurea]",67.4
12,"Cc1ccc(C(=O)N2CCC(c3ccc(C#N)cc3)CC2)cc1NC(=O)NC1CCCC1C(=O)O (centres unmarked) [Example 388, 2-[[5-[4-(4-cyanophenyl)piperidine-1-carbonyl]-2-methylphenyl]carbamoylamino]-cyclopentane-1-carboxylic acid]",83.9
13,"CC(=O)N1CCCC(NC(=O)Nc2cc(C(=O)N3CCC(c4ccc(C#N)cc4)CC3)ccc2C)C1 (centres unmarked) [Example 390, 3-(1-acetylpiperidin-3-yl)-1-[5-[4-(4-cyanophenyl)piperidine-1-carbonyl]-2-methylphenyl]urea]",90.6
14,"Cc1ccc(C(=O)N2CCC(c3ccccc3)CC2)cc1NC(=O)NC(C)C [Example 391, 1-[2-methyl-5-(4-phenylpiperidine-1-carbonyl)phenyl]-3-propan-2-ylurea]",71
15,"CCCN(C(=O)Nc1cc(C(=O)N2CCC(c3ccc(C#N)cc3)CC2)ccc1C)C1CCS(=O)(=O)C1 (centres unmarked) [Example 397, 3-[5-[4-(4-cyanophenyl)piperidine-1-carbonyl]-2-methylphenyl]-1-(1,1-dioxothiolan-3-yl)-1-propylurea]",63.7
16,"CCOCC1CCCN1C(=O)Nc1cc(C(=O)N2CCC(c3ccc(C#N)cc3)CC2)ccc1C (centres unmarked) [Example 399, N-[5-[4-(4-cyanophenyl)piperidine-1-carbonyl]-2-methylphenyl]-2-(ethoxymethyl)pyrrolidine-1-carboxamide]",73.3
17,"CNCCNC(=O)Nc1cc(C(=O)N2CCC(c3ccc(F)cc3)CC2)ccc1C [Example 400, 1-[5-[4-(4-fluorophenyl)piperidine-1-carbonyl]-2-methylphenyl]-3-(2-methylaminoethyl)urea]",66.7
18,"CC(C)NC(=O)Nc1cc(C(=O)N2CCC(c3ccc(C#N)cc3)CC2)ccc1CS(C)(=O)=O [Example 403, 3-[5-[4-(4-cyanophenyl)piperidine-1-carbonyl]-2-(methylsulfonylmethyl)phenyl]-1-propan-2-ylurea]",79.9
19,"Cc1ccc(NC(=O)NC(C)C)cc1C(=O)N1CCC(c2ccc(C#N)cc2)CC1 [Example 404, 1-[3-[4-(4-cyanophenyl)piperidine-1-carbonyl]-4-methylphenyl]-3-propan-2-ylurea]",76.5
20,"CSc1ccc(NC(=O)NC(C)C)cc1C(=O)N1CCC(c2ccc(C#N)cc2)CC1 [Example 405, 3-[3-[4-(4-cyanophenyl)piperidine-1-carbonyl]-4-methylsulfanylphenyl]-1-propan-2-ylurea]",66.8
21,"Cc1ccc(C(=O)N2CCC(c3ccc(C#N)cc3)CC2)cc1NC(=O)NC1CCC(C(=O)O)CC1 (centres unmarked) [Example 406, 4-[[5-[4-(4-cyanophenyl)piperidine-1-carbonyl]-2-methylphenyl]carbamoylamino]cyclohexane-1-carboxylic acid]",93.4
22,"Cc1ccc(C(=O)N2CCC(c3ccc(C#N)cc3)CC2)cc1NC(=O)NCCCC(=O)O [Example 407, 4-[[5-[4-(4-cyanophenyl)piperidine-1-carbonyl]-2-methylphenyl]carbamoylamino]butanoic acid]",104

# More lines, now with the values ahead:
row,inhibition at 100 µM [%],Structure (SMILES)
1,71.1,"Cc1ccc(C(=O)N2CCC(c3ccc(C#N)cc3)CC2)cc1NC(=O)N(C)Cc1ccccc1 [Example 381, 1-benzyl-3-[5-[4-(4-cyanophenyl)piperidine-1-carbonyl]-2-methylphenyl]-1-methylurea]"
2,73.6,"Cc1ccc(C(=O)N2CCC(c3ccc(C#N)cc3)CC2)cc1NC(=O)NC1CONC1=O (centres unmarked) [Example 383, 1-[5-[4-(4-cyanophenyl)piperidine-1-carbonyl]-2-methylphenyl]-3-(3-oxo-1,2-oxazolidin-4-yl)urea]"
3,72.9,"C[S+]([O-])c1ccc(C(=O)N2CCC(c3ccc(C#N)cc3)CC2)cc1NC(=O)NCc1ccccc1 (centres unmarked) [Example 387, 3-benzyl-1-[5-[4-(4-cyanophenyl)piperidine-1-carbonyl]-2-methylsulfinylphenyl]urea]"
4,78.6,"Cc1ccc(C(=O)N2CCC(c3ccc(C#N)cc3)CC2)cc1NC(=O)NC1(C)CC1 [Example 389, 1-[5-[4-(4-cyanophenyl)piperidine-1-carbonyl]-2-methylphenyl]-3-(1-methylcyclopropyl)-urea]"
5,76.3,"Cc1ccc(C(=O)N2CCC(c3ccc(C#N)cc3)CC2)cc1NC(=O)N(C)CCO [Example 392, 3-[5-[4-(4-cyanophenyl)piperidine-1-carbonyl]-2-methylphenyl]-1-(2-hydroxyethyl)-1-methylurea]"
6,65.8,"Cc1ccc(C(=O)N2CCC(c3ccc(C#N)cc3)CC2)cc1NC(=O)N(C)C1CCN(C)CC1 [Example 393, 3-[5-[4-(4-cyanophenyl)piperidine-1-carbonyl]-2-methylphenyl]-1-methyl-1-(1-methylpiperidin-4-yl)urea]"
7,68.7,"Cc1ccc(C(=O)N2CCC(c3ccc(C#N)cc3)CC2)cc1NC(=O)N(C)CCN(C)C [Example 394, 3-[5-[4-(4-cyanophenyl)piperidine-1-carbonyl]-2-methylphenyl]-1-(2-dimethylaminoethyl)-1-methylurea]"
8,71.6,"Cc1ccc(C(=O)N2CCC(c3ccc(C#N)cc3)CC2)cc1NC(=O)N(CCO)C(C)C [Example 395, 3-[5-[4-(4-cyanophenyl)piperidine-1-carbonyl]-2-methylphenyl]-1-(2-hydroxyethyl)-1-propan-2-ylurea]"
9,62.9,"Cc1ccc(C(=O)N2CCC(c3ccc(C#N)cc3)CC2)cc1NC(=O)N(C)C1CCOCC1 [Example 396, 3-[5-[4-(4-cyanophenyl)piperidine-1-carbonyl]-2-methylphenyl]-1-methyl-1-(oxan-4-yl)urea]"
10,66.3,"Cc1ccc(C(=O)N2CCC(c3ccc(C#N)cc3)CC2)cc1NC(=O)N(C)CC(=O)NC(C)C [Example 398, 2-[[5-[4-(4-cyanophenyl)piperidine-1-carbonyl]-2-methylphenyl]carbamoyl-methylamino]-N-propan-2-ylacetamide]"
11,65.7,"CC(=O)NCCN(C)C(=O)Nc1cc(C(=O)N2CCC(c3ccc(C#N)cc3)CC2)ccc1C [Example 401, N-[2-[[5-[4-(4-cyanophenyl)piperidine-1-carbonyl]-2-methylphenyl]carbamoyl-methylamino]ethyl]acetamide]"
12,64.6,"CCS(=O)(=O)NCCN(C)C(=O)Nc1cc(C(=O)N2CCC(c3ccc(C#N)cc3)CC2)ccc1C [Example 402, 3-[5-[4-(4-cyanophenyl)piperidine-1-carbonyl]-2-methylphenyl]-1-[2-(ethylsulfonylamino)ethyl]-1-methylurea]"
13,95.7,"Cc1ccc(C(=O)N2CCC(c3ccc(C#N)cc3)CC2)cc1NC(=O)NCC(=O)O [Example 408, 2-[[5-[4-(4-cyanophenyl)piperidine-1-carbonyl]-2-methylphenyl]carbamoylamino]acetic acid]"
